From US12673975B2, “Cyclic peptide, cell scaffold material, cell separating material, and medium” (FUJIFILM Corporation, priority 2019, dated 2026)
Like-named read-outs stand apart in the source and are kept apart here. Starred links: 1 amine or outer side, 2 acyl side, 3 side chain; linkers in the order of their positions; H or OH if unused. Positions of bridges follow the written chain, without caps; N, C: chain ends. Non-standard residues stand in square brackets, D forms with d. Residues, ends and D or L forms follow the SMILES beside them. Pen = CC(C)(S)[C@H](N)C(=O)O; hCys = N[C@@H](CCS)C(=O)O; Orn = NCCC[C@H](N)C(=O)O; Dab = NCC[C@H](N)C(=O)O; X1 = O=C(C[*:2])[*:1]; X2 = O=C(C[*:1])[*:2]

Key:
human integrin αvβ5 = human integrin αvβ5 (Homo sapiens, UniProt P06756+P18084); experiment: Evaluation of integrin binding property (surface plasmon resonance, Biacore 3000, immobilized cyclic peptide)
Outline: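 Human αvβ5 (30-1,000 nM) flowed for 10 min at 25 °C over immobilized cyclic peptide in 20 mM HEPES, 150 mM NaCl, 5 mM MgCl2, pH 7.4, followed by 30 min running buffer and 0.5 M EDTA regeneration. Dissociation constant from peptide minus unimmobilized channel, scored into standard grades.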

[1] = Evaluation of molecule stability (alkali treatment, residual rate by LC/MS); type: physicochemical; conditions: for Performance evaluation: Stability (residual rate of cyclic peptide after alkali treatment): 500 μM peptide aqueous solution plus equivalent of 1 M sodium hydroxide, 15° C., 3 hours, LC/MS peak area; for Stability (molecule stability, residual rate of the cyclic peptide rank): alkali treatment, residual rate by LC/MS
Outline: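 Stability read as percent of summed LC/MS peak area remaining versus untreated peptide (C18, 45 °C, 10 mM ammonium formate pH 3, ESI positive/negative). Treatment: 500 μM peptide in water plus an equivalent of 1 M NaOH, 15 °C for 3 hours.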

[2] = SPR, 25° C., HEPES buffer with 5 mM magnesium chloride, integrin 30-1,000 nM, read-out: Performance evaluation: Binding activity (dissociation constant between the cyclic peptide and human integrin αvβ5)
[3] = surface plasmon resonance, immobilized cyclic peptide, human integrin αvβ5, read-out: Binding activity (integrin binding property, dissociation constant rank)

human integrin αvβ5, sequence (P06756 31-1048): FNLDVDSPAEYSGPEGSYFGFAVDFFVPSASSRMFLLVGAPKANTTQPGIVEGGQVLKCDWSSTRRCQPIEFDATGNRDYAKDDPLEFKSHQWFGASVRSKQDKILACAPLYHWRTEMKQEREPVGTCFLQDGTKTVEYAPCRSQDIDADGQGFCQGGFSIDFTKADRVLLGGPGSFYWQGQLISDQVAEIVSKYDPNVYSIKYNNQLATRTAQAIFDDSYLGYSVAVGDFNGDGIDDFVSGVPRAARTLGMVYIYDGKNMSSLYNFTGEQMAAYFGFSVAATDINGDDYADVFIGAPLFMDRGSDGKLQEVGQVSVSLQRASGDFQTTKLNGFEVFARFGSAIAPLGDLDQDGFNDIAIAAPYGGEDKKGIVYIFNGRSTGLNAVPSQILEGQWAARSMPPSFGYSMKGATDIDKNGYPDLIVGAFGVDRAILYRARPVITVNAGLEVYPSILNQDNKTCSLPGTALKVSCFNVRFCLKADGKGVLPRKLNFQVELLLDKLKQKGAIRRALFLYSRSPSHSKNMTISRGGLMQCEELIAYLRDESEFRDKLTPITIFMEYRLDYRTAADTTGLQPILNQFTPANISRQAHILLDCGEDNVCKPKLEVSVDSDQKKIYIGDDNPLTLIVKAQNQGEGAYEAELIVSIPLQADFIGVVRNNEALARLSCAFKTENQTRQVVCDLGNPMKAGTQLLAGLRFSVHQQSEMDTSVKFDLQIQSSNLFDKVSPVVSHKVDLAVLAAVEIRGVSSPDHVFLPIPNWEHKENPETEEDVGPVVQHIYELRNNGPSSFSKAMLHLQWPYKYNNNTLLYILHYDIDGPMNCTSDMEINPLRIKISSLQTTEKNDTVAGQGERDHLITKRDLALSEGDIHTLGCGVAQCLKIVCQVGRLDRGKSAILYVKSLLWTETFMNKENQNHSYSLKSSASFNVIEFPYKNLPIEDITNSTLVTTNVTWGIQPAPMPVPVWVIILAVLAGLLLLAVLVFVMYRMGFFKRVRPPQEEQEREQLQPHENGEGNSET
human integrin αvβ5, sequence (P18084 24-799): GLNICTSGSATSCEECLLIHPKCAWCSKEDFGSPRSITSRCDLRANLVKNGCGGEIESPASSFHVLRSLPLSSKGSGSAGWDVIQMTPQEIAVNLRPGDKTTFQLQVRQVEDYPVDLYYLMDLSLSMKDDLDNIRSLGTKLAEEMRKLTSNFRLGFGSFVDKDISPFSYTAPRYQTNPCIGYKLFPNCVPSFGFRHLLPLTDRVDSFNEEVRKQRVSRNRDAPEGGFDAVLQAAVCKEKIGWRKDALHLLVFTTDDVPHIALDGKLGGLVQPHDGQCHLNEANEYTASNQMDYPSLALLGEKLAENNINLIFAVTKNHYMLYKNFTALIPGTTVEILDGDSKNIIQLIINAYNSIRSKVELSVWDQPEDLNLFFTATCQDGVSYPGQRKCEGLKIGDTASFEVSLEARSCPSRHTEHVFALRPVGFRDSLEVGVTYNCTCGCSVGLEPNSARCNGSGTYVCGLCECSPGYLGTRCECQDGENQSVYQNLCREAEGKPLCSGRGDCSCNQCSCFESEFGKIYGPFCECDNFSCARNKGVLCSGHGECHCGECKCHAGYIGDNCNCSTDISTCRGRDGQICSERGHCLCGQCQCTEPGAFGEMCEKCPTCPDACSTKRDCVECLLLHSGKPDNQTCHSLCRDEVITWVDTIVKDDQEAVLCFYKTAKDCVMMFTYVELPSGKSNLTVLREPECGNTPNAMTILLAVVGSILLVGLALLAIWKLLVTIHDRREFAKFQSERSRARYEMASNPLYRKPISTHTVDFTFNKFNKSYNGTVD

Kd (human integrin αvβ5; [2]) [nM] | Kd (human integrin αvβ5; [3]) [nM] | Structure (SMILES) | Performance evaluation: Stability (residual rate of cyclic peptide after alkali treatment) [1] | Stability (molecule stability, residual rate of the cyclic peptide rank) [1]
< 50 | – | CC[C@H](C)[C@@H]1NC(=O)[C@@H](NC(=O)CNC(=O)[C@H](CCCCN)NC(=O)[C@H](CCCCN)NC(=O)[C@@H](N)CCCCN)CCSCC(=O)NCC[C@@H](C(=O)NCC(=O)O)NC(=O)[C@H](C)NC(=O)[C@H](Cc2ccccc2)NC(=O)[C@H]([C@@H](C)O)NC(=O)[C@H](CC(=O)O)NC(=O)CNC(=O)[C@H](CCCNC(=N)N)NC(=O)[C@@H]2CCCN2C1=O [Cyclic peptide 84, KKKG-(Hcy)-IPRGDTFA(Dab(acetyl))G] (H-KKKG[hCys]IPRGDTFA[Dab]G-OH; linker 5-14 via X2) | A (The residual rate of the cyclic peptide is 70% or more.) | –
– | < 50 | CC(C)[C@@H]1NC(=O)[C@@H](NC(=O)[C@H](CCCCN)NC(=O)[C@H](CCCCN)NC(=O)[C@@H](N)CCCCN)CCSCC(=O)NCC[C@@H](C(=O)O)NC(=O)[C@H](C)NC(=O)[C@H](Cc2ccccc2)NC(=O)[C@H](CO)NC(=O)[C@H](CC(=O)O)NC(=O)CNC(=O)[C@H](CCCNC(=N)N)NC(=O)[C@@H]2CCCN2C1=O [Cyclic peptide 102, KKK-(Hcy)-VPRGDSFA(Dab(acetyl))] (H-KKK[hCys]VPRGDSFA[Dab]-OH; linker 4-13 via X2) | – | A (The residual rate of the cyclic peptide is 70% or more.)
< 50 | – | C[C@H](NC(=O)[C@@H]1CCNC(=O)CSCC[C@H](NC(=O)CNC(=O)[C@H](CCCCN)NC(=O)[C@H](CCCCN)NC(=O)[C@@H](N)CCCCN)C(=O)N[C@@H](CCC(=O)O)C(=O)N2CCC[C@H]2C(=O)N[C@@H](CCCNC(=N)N)C(=O)NCC(=O)N[C@@H](CC(=O)O)C(=O)N[C@@H]([C@@H](C)O)C(=O)N[C@@H](Cc2ccccc2)C(=O)N[C@@H](CCCNC(=N)N)C(=O)N1)C(=O)O [Cyclic peptide 69, KKKG-(Hcy)-EPRGDTFR(Dab(acetyl))A] (H-KKKG[hCys]EPRGDTFR[Dab]A-OH; linker 5-14 via X2) | A (The residual rate of the cyclic peptide is 70% or more.) | –
– | < 50 | CC(C)[C@@H]1NC(=O)[C@@H](N)CCSCC(=O)NCC[C@@H](C(=O)N[C@@H](CCCCN)C(=O)N[C@@H](CCCCN)C(=O)N[C@@H](CCCCN)C(=O)O)NC(=O)[C@H](C)NC(=O)[C@H](Cc2ccccc2)NC(=O)[C@H]([C@@H](C)O)NC(=O)[C@H](CC(=O)O)NC(=O)CNC(=O)[C@H](CCCNC(=N)N)NC(=O)[C@@H]2CCCN2C1=O [Cyclic peptide 103, (Hcy)-VPRGDTFA(Dab(acetyl))KKK] (H-[hCys]VPRGDTFA[Dab]KKK-OH; linker 1-10 via X2) | – | A (The residual rate of the cyclic peptide is 70% or more.)
– | < 50 | CC(C)[C@@H]1NC(=O)[C@@H](NC(=O)[C@H](C)NC(=O)[C@H](CCCCN)NC(=O)[C@H](CCCCN)NC(=O)[C@@H](N)CCCCN)CCSCC(=O)NCC[C@@H](C(=O)O)NC(=O)[C@H](C)NC(=O)[C@H](Cc2ccccc2)NC(=O)[C@H]([C@@H](C)O)NC(=O)[C@H](CC(=O)O)NC(=O)CNC(=O)[C@H](CCCNC(=N)N)NC(=O)[C@@H]2CCCN2C1=O [Cyclic peptide 164, KKKA-(Hcy)-VPRGDTFA(Dab(acetyl))] (H-KKKA[hCys]VPRGDTFA[Dab]-OH; linker 5-14 via X2) | – | A (The residual rate of the cyclic peptide is 70% or more.)
< 50 | – | CC(C)[C@@H]1NC(=O)[C@@H](NC(=O)[C@H](CCCCN)NC(=O)[C@H](CCCCN)NC(=O)[C@@H](N)CCCCN)CCSCC(=O)NCC[C@@H](C(=O)O)NC(=O)[C@H](Cc2ccccc2)NC(=O)[C@H]([C@@H](C)O)NC(=O)[C@H](CC(=O)O)NC(=O)CNC(=O)[C@H](CCCNC(=N)N)NC(=O)[C@@H]2CCCN2C1=O [Cyclic peptide 64, KKK-(Hcy)-VPRGDTF(Dab(acetyl))] (H-KKK[hCys]VPRGDTF[Dab]-OH; linker 4-12 via X2) | A (The residual rate of the cyclic peptide is 70% or more.) | –
– | < 50 | CC[C@H](C)[C@@H]1NC(=O)[C@@H](NC(=O)CNC(=O)[C@H](CCCCN)NC(=O)[C@H](CCCCN)NC(=O)[C@@H](N)CCCCN)CCCNC(=O)CSC(C)(C)[C@@H](C(=O)N[C@@H](C)C(=O)O)NC(=O)[C@H](CCCNC(=N)N)NC(=O)[C@H](Cc2ccccc2)NC(=O)[C@H]([C@@H](C)O)NC(=O)[C@H](CC(=O)O)NC(=O)CNC(=O)[C@H](CCCNC(=N)N)NC(=O)[C@@H]2CCCN2C1=O [Cyclic peptide 134, KKKG(Orn(acetyl))IPRGDTFR-(Pen)-A] (H-KKKG[Orn]IPRGDTFR[Pen]A-OH; linker 5-14 via X1) | – | A (The residual rate of the cyclic peptide is 70% or more.)
< 50 | – | C[C@H](NC(=O)[C@@H]1CCNC(=O)CSCC[C@H](NC(=O)[C@H](C)NC(=O)[C@H](CCCCN)NC(=O)[C@H](CCCCN)NC(=O)[C@@H](N)CCCCN)C(=O)N[C@@H]([C@@H](C)O)C(=O)N2CCC[C@H]2C(=O)N[C@@H](CCCNC(=N)N)C(=O)NCC(=O)N[C@@H](CC(=O)O)C(=O)N[C@@H]([C@@H](C)O)C(=O)N[C@@H](Cc2ccccc2)C(=O)N[C@@H](CCCNC(=N)N)C(=O)N1)C(=O)O [Cyclic peptide 75, KKKA-(Hcy)-TPRGDTFR(Dab(acetyl))A] (H-KKKA[hCys]TPRGDTFR[Dab]A-OH; linker 5-14 via X2) | A (The residual rate of the cyclic peptide is 70% or more.) | –
– | < 50 | C[C@H](NC(=O)[C@H](CCCCN)NC(=O)[C@H](CCCCN)NC(=O)[C@@H](N)CCCCN)C(=O)N[C@H]1CCSCC(=O)NCC[C@@H](C(=O)O)NC(=O)[C@H](C)NC(=O)[C@H](Cc2ccccc2)NC(=O)[C@H]([C@@H](C)O)NC(=O)[C@H](CC(=O)O)NC(=O)CNC(=O)[C@H](CCCNC(=N)N)NC(=O)[C@@H]2CCCN2C(=O)[C@H]([C@@H](C)O)NC1=O [Cyclic peptide 158, KKKA-(Hcy)-TPRGDTFA(Dab(acetyl))] (H-KKKA[hCys]TPRGDTFA[Dab]-OH; linker 5-14 via X2) | – | A (The residual rate of the cyclic peptide is 70% or more.)
100 to 200 | – | C[C@H](NC(=O)[C@H](CCCCN)NC(=O)[C@H](CCCCN)NC(=O)[C@@H](N)CCCCN)C(=O)N[C@H]1CCSCC(=O)NCC[C@@H](C(N)=O)NC(=O)[C@H](CCCNC(=N)N)NC(=O)[C@H](Cc2ccc(O)cc2)NC(=O)[C@H](CC(N)=O)NC(=O)[C@H](CC(=O)O)NC(=O)CNC(=O)[C@H](CCCNC(=N)N)NC(=O)[C@@H]2CCCN2C(=O)[C@H](CCC(=O)O)NC1=O [Cyclic peptide 50, KKKA-(Hcy)-EPRGDNYR(Dab(acetyl))] (H-KKKA[hCys]EPRGDNYR[Dab]-NH2; linker 5-14 via X2) | A (The residual rate of the cyclic peptide is 70% or more.) | –
< 50 | – | CC(C)C[C@@H]1NC(=O)[C@@H](NC(=O)CNC(=O)[C@H](CCCCN)NC(=O)[C@H](CCCCN)NC(=O)[C@@H](N)CCCCN)CCSCC(=O)NCC[C@@H](C(=O)N[C@@H](C)C(=O)O)NC(=O)[C@H](CCCNC(=N)N)NC(=O)[C@H](Cc2ccccc2)NC(=O)[C@H](CC(N)=O)NC(=O)[C@H](CC(=O)O)NC(=O)CNC(=O)[C@H](CCCNC(=N)N)NC(=O)[C@@H]2CCCN2C1=O [Cyclic peptide 27, KKKG-(Hcy)-LPRGDNFR(Dab(acetyl))A] (H-KKKG[hCys]LPRGDNFR[Dab]A-OH; linker 5-14 via X2) | A (The residual rate of the cyclic peptide is 70% or more.) | –
– | 50 to 100 | CC(C)[C@@H]1NC(=O)[C@@H](NC(=O)[C@H](CCCCN)NC(=O)[C@H](CCCCN)NC(=O)[C@@H](N)CCCCN)CCSCC(=O)NCC[C@@H](C(=O)O)NC(=O)[C@H]([C@@H](C)O)NC(=O)[C@H](Cc2ccccc2)NC(=O)[C@H]([C@@H](C)O)NC(=O)[C@H](CC(=O)O)NC(=O)CNC(=O)[C@H](CCCNC(=N)N)NC(=O)[C@@H]2CCCN2C1=O [Cyclic peptide 154, KKK-(Hcy)-VPRGDTFT(Dab(acetyl))] (H-KKK[hCys]VPRGDTFT[Dab]-OH; linker 4-13 via X2) | – | A (The residual rate of the cyclic peptide is 70% or more.)
50 to 100 | – | CC[C@H](C)[C@@H]1NC(=O)[C@H](C)NC(=O)[C@H](C)NC(=O)[C@@H](NC(=O)[C@H](CCCCN)NC(=O)[C@H](CCCCN)NC(=O)[C@@H](N)CCCCN)CCSCC(=O)NCC[C@@H](C(=O)N[C@@H](C)C(=O)O)NC(=O)[C@H](CCCNC(=N)N)NC(=O)[C@H](Cc2ccccc2)NC(=O)[C@H](CC(N)=O)NC(=O)[C@H](CC(=O)O)NC(=O)CNC(=O)[C@H](CCCNC(=N)N)NC(=O)[C@@H]2CCCN2C1=O [Cyclic peptide 18, KKK-(Hcy)-AAIPRGDNFR(Dab(acetyl))A] (H-KKK[hCys]AAIPRGDNFR[Dab]A-OH; linker 4-15 via X2) | A (The residual rate of the cyclic peptide is 70% or more.) | –
– | < 50 | CC[C@H](C)[C@@H]1NC(=O)[C@@H](NC(=O)[C@H](CCCCN)NC(=O)[C@H](CCCCN)NC(=O)[C@@H](N)CCCCN)CCSCC(=O)NCC[C@@H](C(=O)O)NC(=O)[C@H](C)NC(=O)[C@H](Cc2ccccc2)NC(=O)[C@H](CO)NC(=O)[C@H](CC(=O)O)NC(=O)CNC(=O)[C@H](CCCNC(=N)N)NC(=O)[C@@H]2CCCN2C1=O [Cyclic peptide 101, KKK-(Hcy)-IPRGDSFA(Dab(acetyl))] (H-KKK[hCys]IPRGDSFA[Dab]-OH; linker 4-13 via X2) | – | A (The residual rate of the cyclic peptide is 70% or more.)
